As usually defined, the IC50 is the point on the concentration scale where inhibition reaches its midpoint.

For the test, the target named is T1, recombinant human renin (Homo sapiens, UniProt P00797).
T1 sequence (P00797 67-406): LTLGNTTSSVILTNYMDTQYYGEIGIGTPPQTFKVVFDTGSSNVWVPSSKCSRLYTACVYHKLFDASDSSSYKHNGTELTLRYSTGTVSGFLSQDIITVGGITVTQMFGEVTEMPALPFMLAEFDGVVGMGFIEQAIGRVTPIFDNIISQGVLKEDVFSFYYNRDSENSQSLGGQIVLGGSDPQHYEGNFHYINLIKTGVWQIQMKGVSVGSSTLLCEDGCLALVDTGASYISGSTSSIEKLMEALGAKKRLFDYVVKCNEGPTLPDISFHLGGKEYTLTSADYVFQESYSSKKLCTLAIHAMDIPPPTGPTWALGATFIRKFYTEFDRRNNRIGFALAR
The test can be described thus: Primary renin inhibition assay: IC50 in buffer, 384 well MTP (AngI quantified by EIA). As to conditions: human tetradecapeptide substrate, 37° C. for 3 h. Format: biochemical. As for the experimental part:
1. Enzyme Immuno Assay (EIA) to Estimate AngI Accumulation and Renin Inhibition
1.1 Preparation of AngI-BSA Conjugate
1.3 mg (1 μmol) of AngI [1-10 (Bachem, H-1680)] and 17 mg (0.26 μmol) of BSA (Fluka, 05475) were dissolved in 4 mL of 0.1M phosphate buffer, pH 7.4, after which 2 mL of a 1:100 dilution of glutaraldehyde in H2O (Sigma G-5882) was added dropwise. The mixture was incubated overnight at 4° C., then dialyzed against 2 liters of 0.9% NaCl, twice for 4 h at rt, followed by dialysis against 2 liters of PBS 1× overnight at rt. The solution was then filtered with a Syringe filter, 0.45 μm (Nalgene, Cat. No. 194-2545). The conjugate can be stored in polypropylene tubes in 0.05% sodium azide at 4° C. for at least 12 months.
1.2 Preparation of BSA-AngI Coated MTP
Microtiter plates (MPT384, MaxiSorp™, Nunc) were incubated overnight at 4° C. with 80 μl of AngI (1-10)/BSA conjugate, diluted 1:100'000 in PBS 1× in a teflon beaker (exact dilution dependent on batch of conjugate), emptied, filled with 90 μl of blocking solution [0.5% BSA (Sigma A-2153) in PBS 1×, 0.02% NaN3], and incubated for at least 2 h at rt, or overnight at 4° C. 96 well MTP (MaxiSorp™, Nunc) were coated with 200 μl conjugate and blocked with 250 μl blocking solution as above, except that the blocking solution contained 3% BSA. The plates can be stored in blocking solution at 4° C. for 1 month.
1.3 AngI-EIA in 384 Well MTP
The AngI (1-10)/BSA coated MTP were washed 3 times with wash buffer (PBS 1×, 0.01% Tween 20) and filled with 75 μl of primary antibody solution (anti-AngI antiserum, pre-diluted 1:10 in horse serum), diluted to a final concentration of 1:100'000 in assay buffer (PBS 1×, 1 mM EDTA, 0.1% BSA, pH 7.4). 5 μl of the renin reaction (or standards in assay buffer) (see below) were added to the primary antibody solution and the plates were incubated overnight at 4° C. After the incubation the plates were washed 3 times with wash buffer and incubated with secondary antibody [anti-rabbit IgG, linked to horseradish peroxidase (Amersham Bioscience, NA 934V), diluted 1:2'000 in wash buffer] for 2 h at rt. The plates were washed 3 times with wash buffer and then incubated for 1 h at rt with substrate solution [1.89 mM ABTS (2.2′-azino-di-(3-ethyl-benzthiazolinsulfonate)] (Roche Diagnostics, 102 946) and 2.36 mM H2O2 [30%, (Fluka, 95300] in substrate buffer (0.1M sodium acetate, 0.05M sodium dihydrogen phosphate, pH 4.2). The OD of the plate was read at 405 nm in a microplate reader (FLUOStar Optima from BMG). The production of AngI during the renin reaction was quantified by comparing the OD of the sample with the OD of a standard curve of AngI(1-10), measured in parallel.
2. Primary Renin Inhibition Assay: IC50 in Buffer, 384 Well MTP
The renin assay was adapted from an assay described before (Fischli W. et al., Hypertension, 1991, 18:22-31) and consists of two steps: in the first step, recombinant human renin is incubated with its substrate (commercial human tetradecapeptide renin substrate) to create the product Angiotensin I (AngI). In the second step, the accumulated AngI is measured by an immunological assay (enzyme immuno assay, EIA). The detailed description of this assay is found below. The EIA is very sensitive and well suited for renin activity measurements in buffer or in plasma. Due to the low concentration of renin used in this assay (2 fmol per assay tube or 10 pM) it is possible to measure inhibitor affinities in this primary assay down to low pM concentration.
Recombinant human renin (3 pg/μl) in assay buffer (PBS 1×, 1 mM EDTA, 0.1% BSA, pH 7.4), human tetradecapeptide (1-14) substrate (Bachem, M-1120) [5 μM in 10 mM HCl], hydroxyquinoline sulfate (Fluka, 55100) [30 mM in H2O] and assay buffer were premixed at 4° C. at a ratio of 100:30:10:145. 47.5 μl per well of this premix was transferred into polypropylene plates (MTP384, Nunc). […]
As for `Cc1cccc(CN(C(=O)C(CN)Cc2cnc(OCCOc3c(F)ccc(F)c3Cl)s2)C2CC2)c1C` (racemic) [Example 2, (rac.)-3-Amino-2-{2-[2-(2-chloro-3,6-difluoro-phenoxy)-ethoxy]-thiazol-5-ylmethyl}-N-cyclopropyl-N-(2,3-dimethyl-benzyl)-propionamide], the IC50 is 7.8 nM.
Regarding `COCCc1ccc(Cl)c(CN(C(=O)[C@@H](CN)Cc2ccc(OCCOc3c(Cl)cc(C)cc3Cl)nc2)C2CC2)c1` [Example 18, (R)-2-Aminomethyl-N-[2-chloro-5-(2-methoxy-ethyl)-benzyl]-N-cyclopropyl-3-{6-[2-(2,6-dichloro-4-methyl-phenoxy)-ethoxy]-pyridin-3-yl}-propionamide], the half-maximal inhibitory concentration (IC50) amounted to 0.2 nM.
As to “Mixture of (R)-2-aminomethyl-3-{2-[(R)-3-(3-chloro-2,6-difluoro-phenoxy)-pyrrolidin-1-yl]-thiazol-5-yl}-N-cyclopropyl-N-(2,3-dichloro-benzyl)-propionamide and (S)-2-aminomethyl-3-{2-[(R)-3-(3-chloro-2,6-difluoro-phenoxy)-pyrrolidin-1-yl]-thiazol-5-yl}-N-cyclopropyl-N-(2,3-dichloro-benzyl)-propionamide [Example 14]”, the IC50 is 45 nM.
With `COCCc1ccc(Cl)c(CN(C(=O)[C@@H](CN)Cc2ccc(N3CC[C@@H](Oc4c(Cl)cc(C)cc4Cl)C3)nc2)C2CC2)c1` [Example 20, (R)-2-Aminomethyl-N-[2-chloro-5-(2-methoxy-ethyl)-benzyl]-N-cyclopropyl-3-{6-[(R)-3-(2,6-dichloro-4-methyl-phenoxy)-pyrrolidin-1-yl]-pyridin-3-yl}-propionamide], the half-inhibitory concentration (IC50) is 0.5 nM.
For `COCCc1ccc(Cl)c(CN(C(=O)[C@@H](CN)Cc2ccc(N3CC[C@H](Oc4c(Cl)cc(C)cc4Cl)C3)nc2)C2CC2)c1` [Example 22, (R)-2-Aminomethyl-N-[2-chloro-5-(2-methoxy-ethyl)-benzyl]-N-cyclopropyl-3-{6-[(S)-3-(2,6-dichloro-4-methyl-phenoxy)-pyrrolidin-1-yl]-pyridin-3-yl}-propionamide], the concentration for half-maximal inhibition (IC50) is 0.3 nM.
“Mixture of (R)-2-aminomethyl-N-cyclopropyl-N-(2,3-dichloro-benzyl)-3-{2-[(R)-3-(2,6-dichloro-3,4-dimethyl-phenoxy)-pyrrolidin-1-yl]-thiazol-5-yl}-propionamide and (S)-2-aminomethyl-N-cyclopropyl-N-(2,3-dichloro-benzyl)-3-{2-[(R)-3-(2,6-dichloro-3,4-dimethyl-phenoxy)-pyrrolidin-1-yl]-thiazol-5-yl}-propionamide [Example 11]”: the IC50 stood at 17 nM.
